Key:
Neprilysin = target: T1, Neprilysin (Rattus norvegicus, UniProt P07861); assay: Compound was measured for the inhibition of neutral endopeptidase 24.11(NEP).
T1 sequence (P07861 whole entry): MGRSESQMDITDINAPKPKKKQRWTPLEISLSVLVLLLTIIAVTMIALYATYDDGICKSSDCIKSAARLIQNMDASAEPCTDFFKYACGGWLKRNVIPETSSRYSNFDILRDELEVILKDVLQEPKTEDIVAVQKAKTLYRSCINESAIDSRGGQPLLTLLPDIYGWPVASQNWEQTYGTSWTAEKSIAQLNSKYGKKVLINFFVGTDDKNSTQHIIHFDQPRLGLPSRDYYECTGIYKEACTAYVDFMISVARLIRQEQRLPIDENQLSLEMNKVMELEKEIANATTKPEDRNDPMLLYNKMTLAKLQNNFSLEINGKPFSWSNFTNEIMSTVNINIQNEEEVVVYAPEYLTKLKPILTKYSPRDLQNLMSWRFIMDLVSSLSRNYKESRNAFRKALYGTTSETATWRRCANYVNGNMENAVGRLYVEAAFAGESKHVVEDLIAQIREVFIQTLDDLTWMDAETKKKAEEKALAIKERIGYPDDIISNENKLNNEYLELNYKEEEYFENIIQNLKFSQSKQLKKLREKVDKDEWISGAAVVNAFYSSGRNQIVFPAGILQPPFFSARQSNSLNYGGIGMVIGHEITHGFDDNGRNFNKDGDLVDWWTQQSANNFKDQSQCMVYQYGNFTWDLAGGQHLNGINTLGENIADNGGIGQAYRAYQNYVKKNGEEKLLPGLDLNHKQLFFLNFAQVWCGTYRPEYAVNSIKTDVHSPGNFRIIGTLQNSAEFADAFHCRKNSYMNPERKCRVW

[1] = target: T2, Angiotensin-converting enzyme (Rattus norvegicus, UniProt P47820); assay: Compound was measured for the inhibition of Angiotensin I converting enzyme
T2 sequence (P47820 whole entry): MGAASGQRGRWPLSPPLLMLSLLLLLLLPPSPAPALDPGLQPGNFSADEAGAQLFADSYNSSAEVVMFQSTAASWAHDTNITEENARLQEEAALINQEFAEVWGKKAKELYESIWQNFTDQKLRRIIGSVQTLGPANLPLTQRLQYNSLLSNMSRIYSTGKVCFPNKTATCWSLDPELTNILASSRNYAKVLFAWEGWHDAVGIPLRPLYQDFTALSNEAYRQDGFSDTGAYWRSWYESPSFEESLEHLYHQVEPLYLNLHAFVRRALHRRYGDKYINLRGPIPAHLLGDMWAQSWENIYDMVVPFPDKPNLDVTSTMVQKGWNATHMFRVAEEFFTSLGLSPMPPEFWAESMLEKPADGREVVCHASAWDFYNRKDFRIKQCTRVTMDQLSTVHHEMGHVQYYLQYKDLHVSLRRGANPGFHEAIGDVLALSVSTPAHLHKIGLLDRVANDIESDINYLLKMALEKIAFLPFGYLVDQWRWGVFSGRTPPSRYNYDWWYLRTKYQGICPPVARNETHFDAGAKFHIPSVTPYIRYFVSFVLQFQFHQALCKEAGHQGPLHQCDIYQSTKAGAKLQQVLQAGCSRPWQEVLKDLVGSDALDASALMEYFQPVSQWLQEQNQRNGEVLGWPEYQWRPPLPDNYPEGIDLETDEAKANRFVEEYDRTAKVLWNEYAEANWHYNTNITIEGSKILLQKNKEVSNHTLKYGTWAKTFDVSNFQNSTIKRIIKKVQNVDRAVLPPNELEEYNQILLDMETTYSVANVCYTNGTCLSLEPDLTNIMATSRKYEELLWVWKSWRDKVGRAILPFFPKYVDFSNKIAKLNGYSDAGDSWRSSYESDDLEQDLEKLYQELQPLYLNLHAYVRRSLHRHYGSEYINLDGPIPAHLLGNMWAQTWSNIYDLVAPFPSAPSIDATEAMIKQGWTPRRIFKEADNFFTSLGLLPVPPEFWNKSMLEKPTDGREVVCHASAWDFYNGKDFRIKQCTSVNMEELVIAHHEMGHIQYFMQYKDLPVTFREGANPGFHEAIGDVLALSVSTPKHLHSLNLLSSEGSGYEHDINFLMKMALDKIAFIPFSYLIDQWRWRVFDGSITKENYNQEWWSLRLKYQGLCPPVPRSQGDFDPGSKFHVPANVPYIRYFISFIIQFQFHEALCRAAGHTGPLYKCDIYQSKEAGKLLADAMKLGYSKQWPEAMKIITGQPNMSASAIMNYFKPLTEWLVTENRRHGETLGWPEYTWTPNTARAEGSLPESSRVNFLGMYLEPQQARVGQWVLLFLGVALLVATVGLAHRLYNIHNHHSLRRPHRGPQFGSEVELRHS

Row | IC50 (Neprilysin) [nM] | IC50 [1] [nM] | Structure (SMILES)
1 | 55 | 1.5 | O=C(N[C@@H](Cc1ccccc1)P(=O)(O)CC1(C(=O)N[C@@H](Cc2c[nH]c3ccccc23)C(=O)O)CCCC1)c1ccc([N+](=O)[O-])cc1
2 | 90 | 2.5 | CS(=O)(=O)N[C@@H](CCCCN)C(=O)N[C@@H](Cc1ccccc1)P(=O)(O)CC1(C(=O)N[C@@H](Cc2c[nH]c3ccccc23)C(=O)O)CCCC1

Reference: ChEMBL document CHEMBL1129117 (Bioorg Med Chem Lett, 1996)
